Source: patent US6737383B1, “Herbicidal oxadiazolidines” (priority 1999, dated 2004)

Tests used:
rape = assay: Test B pre/postemergence rape; format: in vivo, Brassica napus; conditions: for Plant response rating, Rape: scale of 0 to 10 where 0 is no effect and 10 is complete control
How it was run: (§1)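 Test chemicals in a non-phytotoxic solvent mixture with surfactant were sprayed preemergence onto planted seeds and postemergence onto plants 2 to 18 cm tall (1- to 4-leaf stage). After twelve to sixteen days in a greenhouse, injury was visually rated against untreated controls from 0 (no effect) to 10 (complete control).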

wild oat = assay: Test B pre/postemergence wild oat; format: in vivo, Avena fatua; conditions: for Plant response rating, Wild oats: scale of 0 to 10 where 0 is no effect and 10 is complete control
How it was run: as §1

cocklebur = assay: Test B pre/postemergence cocklebur; format: in vivo, Xanthium strumarium
How it was run: as §1

duck salad = assay: Test B flood test duck salad; format: in vivo, Heteranthera limosa
How it was run: (§2)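 Plants were grown to the 2-leaf stage before treatment with test chemical, then held in a greenhouse for twelve to sixteen days. Injury was visually rated against untreated controls on a 0–10 scale, where 0 is no effect and 10 is complete control.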

velvetleaf = assay: Test B pre/postemergence velvetleaf; format: in vivo, Abutilon theophrasti; conditions: for Plant response rating, Velvetleaf: scale of 0 to 10 where 0 is no effect and 10 is complete control
How it was run: as §1

soybean = assay: Test B pre/postemergence soybean; format: in vivo, Glycine max; conditions: for Plant response rating, Soybean: scale of 0 to 10 where 0 is no effect and 10 is complete control
How it was run: as §1

corn = assay: Test B pre/postemergence corn; format: in vivo, Zea mays
How it was run: as §1

crabgrass = assay: Test B pre/postemergence crabgrass; format: in vivo, Digitaria sanguinalis
How it was run: as §1

surinam grass = assay: Test B pre/postemergence surinam grass; format: in vivo, Brachiaria decumbens
How it was run: as §1

bedstraw = assay: Test B pre/postemergence bedstraw; format: in vivo, Galium aparine; conditions: for Bedstraw plant response rating: Postemergence; for Plant response rating, Bedstraw: Preemergence
How it was run: as §1

giant foxtail = assay: Test B pre/postemergence giant foxtail; format: in vivo, Setaria faberii
How it was run: as §1

morningglory = assay: Test B pre/postemergence morningglory; format: in vivo, Ipomoea hederacea; conditions: for Plant response rating, Morningglory: scale of 0 to 10 where 0 is no effect and 10 is complete control
How it was run: as §1

smallflower flatsedge = assay: Test B flood test smallflower flatsedge; format: in vivo, Cyperus difformis
How it was run: as §2

wheat = assay: Test B pre/postemergence wheat; format: in vivo, Triticum aestivum; conditions: for Plant response rating, Wheat: scale of 0 to 10 where 0 is no effect and 10 is complete control
How it was run: as §1

bamyardgrass = assay: Test B flood test barnyardgrass; format: in vivo, Echinochloa crus-galli
How it was run: as §2

blackgrass = assay: Test B pre/postemergence blackgrass; format: in vivo, Alopecurus myosuroides
How it was run: as §1

[1] = Postemergence, Rate 250 g/ha, scale 0 to 10
[2] = Preemergence, Rate 250 g/ha, scale 0 to 10, 0 is no effect, 10 is complete control
[3] = Preemergence, Rate 500 g/ha, scale 0 to 10, 0 is no effect, 10 is complete control
[4] = Rate 62 g/ha, Postemergence, scale 0 to 10, 0 no effect, 10 complete control
[5] = Rate 125 g/ha, Postemergence, scale 0 to 10, 0 is no effect, 10 is complete control
[6] = Postemergence, Rate 500 g/ha, scale of 0 to 10 where 0 is no effect and 10 is complete control
[7] = Preemergence, Rate 62 g/ha, scale of 0 to 10 where 0 is no effect and 10 is complete control
[8] = Preemergence, Rate 125 g/ha, scale of 0 to 10 where 0 is no effect and 10 is complete control
[9] = Rate 62 g/ha, flood test species, Pre-emergence, visual evaluation after twelve to sixteen days
[10] = Rate 125 g/ha, under heading Pre-emergence, flood test species, visual evaluation after twelve to sixteen days
[11] = Rate 250 g/ha, Pre-emergence (flood test species), scale 0 to 10, 0 is no effect, 10 is complete control
[12] = Rate 500 g/ha, Pre-emergence, flood test species, scale 0 to 10 (0 no effect, 10 complete control)

Structure (SMILES): CC[Si](C)(C)Cn1c(=O)on(C(=O)N(c2ccc(F)cc2)C(C)C)c1=O [Compound 459]
- Rape plant response rating (rape; [1]): 0
- Plant response rating, Rape (rape; Preemergence, Rate 62 g/ha): 0
- Plant response rating, Rape (rape; Preemergence, Rate 125 g/ha): 0
- Rape plant response rating (rape; [2]): 0
- Rape plant response rating (rape; [3]): 0
- Rape plant response rating (rape; [4]): 0
- Rape plant response rating (rape; [5]): 0
- Wild oats plant response rating (wild oat; [1]): 0
- Plant response rating, Wild oats (wild oat; Preemergence, Rate 62 g/ha): 0
- Plant response rating, Wild oats (wild oat; Preemergence, Rate 125 g/ha): 0
- Wild oats plant response rating (wild oat; [2]): 0
- Wild oats plant response rating (wild oat; [3]): 0
- Wild oats plant response rating (wild oat; [4]): 0
- Wild oats plant response rating (wild oat; [5]): 0
- Cocklebur plant response rating (cocklebur; [1]): 0
- Cocklebur plant response rating (cocklebur; [6]): 0
- Plant response rating, Cocklebur (cocklebur; [7]): 0
- Plant response rating, Cocklebur (cocklebur; [8]): 0
- Cocklebur plant response rating (cocklebur; [2]): 0
- Cocklebur plant response rating (cocklebur; [3]): 0
- Cocklebur plant response rating (cocklebur; [4]): 0
- Cocklebur plant response rating (cocklebur; [5]): 0
- Plant response rating, Ducksalad (0 to 10 scale, 0 is no effect, 10 is complete control) (duck salad; [9]): 0
- Ducksalad plant response rating (0 to 10 scale, 0 is no effect, 10 is complete control) (duck salad; [10]): 0
- Ducksalad plant response rating (duck salad; [11]): 0
- Ducksalad plant response rating (duck salad; [12]): 0
- Velvetleaf plant response rating (velvetleaf; [1]): 0
- Plant response rating, Velvetleaf (velvetleaf; Preemergence, Rate 62 g/ha): 0
- Plant response rating, Velvetleaf (velvetleaf; Preemergence, Rate 125 g/ha): 0
- Velvetleaf plant response rating (velvetleaf; [2]): 0
- Velvetleaf plant response rating (velvetleaf; [3]): 0
- Velvetleaf plant response rating (velvetleaf; [4]): 0
- Velvetleaf plant response rating (velvetleaf; [5]): 0
- Soybean plant response rating (soybean; [1]): 6
- Plant response rating, Soybean (soybean; Preemergence, Rate 62 g/ha): 0
- Plant response rating, Soybean (soybean; Preemergence, Rate 125 g/ha): 0
- Soybean plant response rating (soybean; [2]): 0
- Soybean plant response rating (soybean; [3]): 0
- Soybean plant response rating (soybean; [4]): 3
- Soybean plant response rating (soybean; [5]): 3
- Corn plant response rating (corn; [1]): 0
- Corn plant response rating (corn; [6]): 0
- Plant response rating, Corn (corn; [7]): 0
- Plant response rating, Corn (corn; [8]): 0
- Corn plant response rating (corn; [2]): 0
- Corn plant response rating (corn; [3]): 0
- Corn plant response rating (corn; [4]): 0
- Corn plant response rating (corn; [5]): 0
- Crabgrass plant response rating (crabgrass; [1]): 5
- Crabgrass plant response rating (crabgrass; [6]): 8
- Plant response rating, Crabgrass (crabgrass; [7]): 5
- Plant response rating, Crabgrass (crabgrass; [8]): 7
- Crabgrass plant response rating (crabgrass; [2]): 9
- Crabgrass plant response rating (crabgrass; [3]): 10
- Crabgrass plant response rating (crabgrass; [4]): 0
- Crabgrass plant response rating (crabgrass; [5]): 1
- B. signalgrass plant response rating (surinam grass; Postemergence, Rate 250 g/ha, scale 0 to 10, 0 no effect, 10 complete control): 0
- B. signalgrass plant response rating (surinam grass; [6]): 0
- Plant response rating, B. signalgrass (surinam grass; [7]): 0
- Plant response rating, B. signalgrass (surinam grass; [8]): 0
- B. signalgrass plant response rating (surinam grass; [2]): 1
- B. signalgrass plant response rating (surinam grass; [3]): 1
- B. signalgrass plant response rating (surinam grass; [4]): 0
- B. signalgrass plant response rating (surinam grass; [5]): 0
- Bedstraw plant response rating (bedstraw; Rate 250 g/ha, scale 0 to 10): 6
- Bedstraw plant response rating (bedstraw; Rate 500 g/ha, scale of 0 to 10 where 0 is no effect and 10 is complete control): 8
- Plant response rating, Bedstraw (bedstraw; Rate 62 g/ha, scale of 0 to 10 where 0 is no effect and 10 is complete control): 0
- Plant response rating, Bedstraw (bedstraw; Rate 125 g/ha, scale of 0 to 10 where 0 is no effect and 10 is complete control): 0
- Giant foxtail plant response rating (giant foxtail; [1]): 2
- Giant foxtail plant response rating (giant foxtail; [6]): 5
- Plant response rating, Giant foxtail (giant foxtail; [7]): 8
- Plant response rating, Giant foxtail (giant foxtail; [8]): 9
- Giant foxtail plant response rating (giant foxtail; [2]): 10
- Giant foxtail plant response rating (giant foxtail; [3]): 10
- Giant foxtail plant response rating (giant foxtail; [4]): 0
- Giant foxtail plant response rating (giant foxtail; [5]): 0
- Plant response rating, Morningglory (morningglory; Preemergence, Rate 62 g/ha): 0
- Plant response rating, Morningglory (morningglory; Preemergence, Rate 125 g/ha): 0
- Morningglory plant response rating (morningglory; [2]): 0
- Morningglory plant response rating (morningglory; [3]): 0
- Morningglory plant response rating (morningglory; [4]): 6
- Morningglory plant response rating (morningglory; [5]): 8
- Plant response rating, S. Flatsedge (0 to 10 scale, 0 is no effect, 10 is complete control) (smallflower flatsedge; [9]): 0
- S. Flatsedge plant response rating (0 to 10 scale, 0 is no effect, 10 is complete control) (smallflower flatsedge; [10]): 0
- S. Flatsedge plant response rating (smallflower flatsedge; [11]): 0
- S. Flatsedge plant response rating (smallflower flatsedge; [12]): 0
- Wheat plant response rating (wheat; [1]): 0
- Plant response rating, Wheat (wheat; Preemergence, Rate 62 g/ha): 0
- Plant response rating, Wheat (wheat; Preemergence, Rate 125 g/ha): 0
- Wheat plant response rating (wheat; [2]): 0
- Wheat plant response rating (wheat; [3]): 0
- Wheat plant response rating (wheat; [4]): 0
- Wheat plant response rating (wheat; [5]): 0
- Plant response rating, Barnyardgrass (0 to 10 scale, 0 is no effect, 10 is complete control) (bamyardgrass; [9]): 0
- Barnyardgrass plant response rating (0 to 10 scale, 0 is no effect, 10 is complete control) (bamyardgrass; [10]): 0
- Barnyardgrass plant response rating (bamyardgrass; [11]): 0
- Barnyardgrass plant response rating (bamyardgrass; [12]): 0
- Blackgrass plant response rating (blackgrass; [1]): 8
- Blackgrass plant response rating (blackgrass; [6]): 8
- Plant response rating, Blackgrass (blackgrass; [7]): 0
- Plant response rating, Blackgrass (blackgrass; [8]): 0
- Blackgrass plant response rating (blackgrass; [2]): 5
- Blackgrass plant response rating (blackgrass; [3]): 6
- Blackgrass plant response rating (blackgrass; [4]): 0
- Blackgrass plant response rating (blackgrass; [5]): 1
